Experimental data: patent publication US20090130223A1, “COSMETIC PREPARATION WITH AQUAPORIN STIMULATORS AND THE USE THEREOF” (priority 2006, published 2009)

System: aquaporin-3 mRNA in human keratinocytes
Assay: AQP-3 mRNA expression in human keratinocytes by quantitative RT-PCR
Type: cell-based
Conditions: 24 h, 3% w/v glycerol glucoside in culture medium (450 mOsm), compared with 1% w/v glycerin, 2.25% w/v glucose, and 1.5% w/v glycerol glucoside + 0.5% w/v glycerin
Protocol: To this end, human keratinocytes were treated in triplicate in cell culture (37° C., Medium Cambrex No. CC-3158 incl. Supplement kit No. CC-4152; +0.1 mM CaCl2) for 24 h as follows: • Untreated control (corresponds to 330 mOsm, isomolar culture medium) • Addition of 1% w/v glycerin to the culture medium (corresponds to 450 mOsm, osmotic stress) • Addition of 1.5% w/v glycerol glucoside and 0.5% w/v glycerin to the culture medium (corresponds to 450 mOsm osmotic stress, mixture ratio regarding number of particles 1:1) • Addition of 3% w/v glycerol glucoside to the culture medium (corresponds to 450 mOsm, osmotic stress) • Addition of 2.25% w/v glucose to the culture medium (corresponds to 450 mOsm, osmotic stress)
The different amounts used are due to the different molecular weights of the substances. The contribution to the increase in osmolarity in the culture medium depends solely on the added particle number, and this is the same in all of the tests.
After harvest and lysis the entire RNA was isolated from the cells and the aquaporin-3 mRNA relatively contained was determined by means of quantitative RT-PCR.
The concentration indication w/v means mass per volume, wherein 1.0% w/v corresponds to one gram substance in 100 ml solution.

Glyceryl glucoside
expression level of the aquaporin-3 mRNA relativized on 18S rRNA (stimulating effect): better stimulating effect than classic glycerin or glucose alone or a 1:1 mixture of glycerin and glyceryl glucoside
